This is an account of results in ChEMBL document CHEMBL2073786, “MRP2, a human conjugate export pump, is present and transports fluo 3 into apical vacuoles of Hep G2 cells” (Am J Physiol Gastrointest Liver Physiol, 2000).

Chain of ATP-binding cassette sub-family C member 2 (Q92887 whole entry): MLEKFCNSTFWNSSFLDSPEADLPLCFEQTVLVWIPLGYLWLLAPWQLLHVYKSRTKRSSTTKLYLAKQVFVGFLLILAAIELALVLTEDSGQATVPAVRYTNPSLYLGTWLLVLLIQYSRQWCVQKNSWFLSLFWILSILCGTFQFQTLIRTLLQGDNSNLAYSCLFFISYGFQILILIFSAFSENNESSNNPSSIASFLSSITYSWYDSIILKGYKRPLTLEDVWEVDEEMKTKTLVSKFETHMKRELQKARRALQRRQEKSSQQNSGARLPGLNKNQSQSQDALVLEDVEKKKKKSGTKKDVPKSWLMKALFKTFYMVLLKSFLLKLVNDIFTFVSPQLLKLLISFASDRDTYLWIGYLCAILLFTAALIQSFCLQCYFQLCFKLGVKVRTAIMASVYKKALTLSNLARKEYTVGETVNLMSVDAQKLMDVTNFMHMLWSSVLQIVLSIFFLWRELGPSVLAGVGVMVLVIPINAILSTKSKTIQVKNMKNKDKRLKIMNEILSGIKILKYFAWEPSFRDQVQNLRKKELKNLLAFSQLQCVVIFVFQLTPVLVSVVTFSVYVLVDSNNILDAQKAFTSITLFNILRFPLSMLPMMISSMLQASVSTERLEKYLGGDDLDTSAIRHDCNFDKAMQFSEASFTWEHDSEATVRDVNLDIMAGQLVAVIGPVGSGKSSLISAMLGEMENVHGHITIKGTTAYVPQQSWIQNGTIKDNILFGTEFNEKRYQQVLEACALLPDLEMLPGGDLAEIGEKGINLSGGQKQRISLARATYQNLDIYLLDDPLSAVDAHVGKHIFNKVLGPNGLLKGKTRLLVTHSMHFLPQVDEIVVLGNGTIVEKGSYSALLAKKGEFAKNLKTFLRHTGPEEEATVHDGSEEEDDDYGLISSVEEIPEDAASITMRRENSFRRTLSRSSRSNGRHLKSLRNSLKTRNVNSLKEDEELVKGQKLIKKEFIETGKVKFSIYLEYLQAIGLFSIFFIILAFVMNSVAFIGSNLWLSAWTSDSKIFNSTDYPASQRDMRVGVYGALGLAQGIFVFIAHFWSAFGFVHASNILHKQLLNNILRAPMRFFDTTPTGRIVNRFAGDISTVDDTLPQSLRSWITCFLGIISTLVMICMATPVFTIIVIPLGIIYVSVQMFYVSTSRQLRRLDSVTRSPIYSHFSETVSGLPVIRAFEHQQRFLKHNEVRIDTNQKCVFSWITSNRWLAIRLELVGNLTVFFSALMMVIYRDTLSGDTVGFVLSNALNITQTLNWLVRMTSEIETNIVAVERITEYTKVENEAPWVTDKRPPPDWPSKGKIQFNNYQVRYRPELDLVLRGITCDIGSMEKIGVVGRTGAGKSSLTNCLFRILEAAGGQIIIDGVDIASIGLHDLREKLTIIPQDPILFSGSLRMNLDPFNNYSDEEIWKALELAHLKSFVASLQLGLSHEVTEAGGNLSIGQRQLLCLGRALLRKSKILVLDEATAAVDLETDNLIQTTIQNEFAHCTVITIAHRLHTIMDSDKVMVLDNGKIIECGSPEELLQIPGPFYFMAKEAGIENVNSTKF

The data set concerns the target ATP-binding cassette sub-family C member 2 (Homo sapiens, UniProt Q92887). In words: TP_TRANSPORTER: secretion into apical vacuoles in Hep G2 cells. In kind it is functional, cell-based. Particulars: hepg2.
For the compound `Cc1ccc(N(CC(=O)O)CC(=O)O)c(OCCOc2cc(-c3c4cc(Cl)c(=O)cc-4oc4cc(O)c(Cl)cc34)ccc2N(CC(=O)O)CC(=O)O)c1`, the Activity result is “substrate [+]”.

Regarding `CC(CCC(=O)NC(CCCCNc1ccc([N+](=O)[O-])c2nonc12)COO)[C@H]1CC[C@H]2[C@@H]3[C@H](O)CC4C[C@H](O)CC[C@]4(C)[C@H]3CC[C@]12C` (some centres undefined), the Activity entry is “substrate [+]”.

On to `CC(CCC(=O)NCC(=O)Nc1ccc(-c2c3ccc(=O)cc-3oc3cc(O)ccc23)c(C(=O)O)c1)[C@H]1CC[C@H]2[C@@H]3[C@H](O)CC4C[C@H](O)CC[C@]4(C)[C@H]3C[C@H](O)[C@]12C` (some centres undefined), for which the Activity entry is “substrate [+]”.

Regarding `O=C1OC2(c3ccc(O)cc3Oc3cc(O)ccc32)c2ccccc21` [FLUORESCEIN], the Activity entry is “substrate [+]”.
